According to patent US8377874:
Where two headings read alike, the source gives them in different places.

Settings: rcm bond, Zhan catalyst 1B

With `CCOC(=O)[C@@]12C[C@H]1/C=C\CCCCC[C@H](NC(=O)OC(C)(C)C)C(=O)N1C[C@H](Oc3nccc4cc(OC)c(Br)cc34)C[C@H]1C(=O)N2` as the molecule, how does the ring closure, yield of all isomers (from C=CCCCCC[C@H](NC(=O)OC(C)(C)C)C(=O)N1C[C@H](Oc2nccc3cc(OC)c(Br)cc23)C[C@H]1C(=O)N[C@]1(C(=O)OCC)C[C@H]1C=C, DCM, 10.15 mM, 40.0 °C, 2.0 h) read?
Its ring closure, yield of all isomers is 70.1%.

With `CCOC(=O)[C@@]12C[C@H]1C=CCCCCC[C@@H]1NC(=O)OCC(C)(C)CC=Cc3cc4c(cc(-c5ccccc5)nc4cc3OC)O[C@@H]3C[C@@H](C(=O)N2)N(C3)C1=O` as the molecule, how does the ring closure, yield of all isomers (from C=CCCCCC[C@H](NC(=O)OCC(C)(C)CC=C)C(=O)N1C[C@H](Oc2cc(-c3ccccc3)nc3cc(OC)c(C=C)cc23)C[C@H]1C(=O)N[C@]1(C(=O)OCC)C[C@H]1C=C, DCM, 5.0 mM, 40.0 °C, 7.0 h) read?
Its ring closure, yield of all isomers is 49%.

Which ring closure, yield of all isomers (from C=CCCCCC[C@H](NC(=O)OCCCC=C)C(=O)N1C[C@H](Oc2cc(-c3ccccc3)nc3cc(OC)c(C=C)cc23)C[C@H]1C(=O)N[C@]1(C(=O)NS(=O)(=O)C2CC2)C[C@H]1C=C, 1,2-dichloroethane, 4.73 mM, 90.0 °C, 3.0 h) does the source give for `COc1cc2nc(-c3ccccc3)cc3c2cc1C=CCCCOC(=O)N[C@H]1CCCCCC=C[C@@H]2C[C@@]2(C(=O)NS(=O)(=O)C2CC2)NC(=O)[C@@H]2C[C@H](CN2C1=O)O3` here?
The ring closure, yield of all isomers was 6.1%.

With `CCOC(=O)[C@@]12C[C@H]1/C=C\CCCCC[C@@H]1NC(=O)OCC(C)(C)CC=Cc3cc4c(nccc4cc3OC)O[C@@H]3C[C@@H](C(=O)N2)N(C3)C1=O` as the molecule, how does the ring closure, yield of all isomers (from C=CCC(C)(C)COC(=O)N[C@H]1CCCCC/C=C\[C@@H]2C[C@@]2(C(=O)OCC)NC(=O)[C@@H]2C[C@@H](Oc3nccc4cc(OC)c(C=C)cc34)CN2C1=O, DCM, 10.2 mM, 40.0 °C, 5.0 h) read?
Its ring closure, yield of all isomers is 80.8%.
